{
  "source": "paper PMC12373846",
  "about": "“Hemoglobin as a pseudoperoxidase and drug target for oxidative stress-related diseases” (Signal Transduction and Targeted Therapy, 2025)",
  "key": {"[1]": {"tested_on": "purified mouse RBCs", "assay": "Isolated red blood cell H2O2 assay", "type": "cell-based", "conditions": "1 µM H2O2", "protocol": "RBCs were isolated following a modified version of the protocol described by Hanson et al. (2008). Whole blood was collected from male ICR mice (5–6 weeks old) via retro-orbital bleeding under isoflurane anesthesia. Blood was transferred using heparin-coated capillaries into EDTA-coated microcentrifuge tubes and centrifuged at 500 x g for 10 min. Plasma and buffy coat were removed, and the RBC pellet was washed three times with phosphate-buffered saline (PBS) containing 2% fetal bovine serum (FBS) to remove leukocytes and plasma components. The final RBC suspension was adjusted to 5 x 10^3 cells/µL, and cell concentration was verified using an automated hematology analyzer (Horiba Microsemi LC-662).\nH2O2 was quantified using the ROS-Glo H2O2 Assay kit (Promega) according to the manufacturer’s protocol. RBCs were dispensed into white 96-well plates at a final volume 70 µL per well. KDS12025 was tested at final concentrations of 0.01, 0.1, and 1 µM, and co-treated with 1 µM H2O2. The ROS-Glo substrate was added simultaneously to all wells. Plates were incubated for 10 min at 37°C. After incubation, ROS-Glo detection reagent was added directly to each well. Plates were then incubated for 20 min at room temperature. Luminescence was measured using a microplate reader (SpectraMax) according to kit settings. Relative luminescence units (RLU) were background-subtracted and normalized to the RBC+ H2O2 only control group. All conditions were tested in triplicate. Results present the combined average of two independent experiments; each performed with the same experimental layout and controls."}, "[2]": {"tested_on": "aged C57BL/6J mice", "assay": "Immunohistochemistry, aging mice", "type": "in vivo, mouse", "conditions": "30 month, 1 mg/kg/day", "protocol": "Aged 1-year-old C57BL/6J animals were purchased from Janvier Labs (France) and quarantined in the IBS Animal Facility for 2 weeks before the experiment. The animals were weighed, and their water consumption (in grams) was monitored for 3 days before the appropriate drug concentration was calculated for each dose group. The animals were randomly assigned to the drug/control and dose groups. […] The drug concentration (in water) was modified on the basis of changes in animal weight and corresponding water consumption every 3 months. Basal body temperature and body weight were monitored every 2 weeks. The care and handling of the animals were performed in accordance with the guidelines of the Institutional Animal Care and Use Committee of IBS (Daejeon, South Korea).\nThe mice were deeply anesthetized with 2% isoflurane and positioned on the operating table. After the abdomen was opened and the heart was exposed, the […] were perfused with saline, followed by 4% paraformaldehyde (PFA) in 0.1 M PBS. The mice were decapitated, and the brains were excised from the skull. Excised brains were postfixed in 4% PFA overnight at 4 °C and dehydrated in 30% sucrose for 48 h. Coronal hippocampal sections were cut at 30 µm thickness with a cryostat and stored in storage solution. For the ALS experiments, lumbar spinal cords (L2–L5) were also carefully dissected and immediately immersed in 4% PFA for postfixation. The sections were fully washed in 0.1 M PBS and incubated for 1 h in blocking solution (0.3% Triton X-100, 2% donkey and goat serum in 0.1 M PBS). Next, a mixture of primary antibodies in the blocking solution was used for immunostaining on a shaker overnight at 4 °C. The sections were washed in PBS three times. After washing, the sections were incubated with the corresponding fluorescent secondary antibodies for 1 h at RT. DAPI staining was performed by adding a DAPI solution (1:2000) during the second washing step. After the washing step was complete, the sections were mounted on cover slides with mounting medium. A series of fluorescence images were obtained with an LSM900 (Zeiss, Germany) confocal microscope or Lattice SIM Elyra 7 (Zeiss, Germany). The 15–22 μm Z stack images in 1–2 μm steps were processed for image analysis, which was performed via the ImageJ (NIH, US) and ZEN digital imaging for light microscopy blue system (Zeiss, Germany) programs. The primary antibodies used were as follows: chicken anti-GFAP (1:500, Millipore, ab5541), rabbit anti-amyloid beta (1:500, Abcam, ab2539), mouse anti-NeuN (1:200, Millipore, ab377), rabbit anti-Hbβ (1:200, Abcam, ab214049), mouse anti-Hbβ (1:200, Santacruz, sc-21757), mouse anti-MAOB (1:200, Santacruz, sc-515354), mouse anti-8-OhdG (1:500, Santacruz, sc-393871), rabbit anti-TH (1:500, Pelfreez, p40101), and mouse anti-TH (1:200, Sigma, T2928). The following secondary antibodies from Jackson were diluted (1:500) in blocking solution: donkey-anti-chicken 405, donkey-anti-chicken 647, donkey-anti-rabbit 488, donkey-anti-rabbit 594, donkey-anti-rabbit 647, donkey-anti-guinea pig 488, donkey-anti-guinea pig 647, donkey-anti-mouse 594, and donkey-anti-mouse 647. Serial confocal sections immunolabeled with GFAP were compiled into a maximal projection to assess the GFAP signal within the hippocampus (Z-stacked images, 15–22 μm Z stack images in 1–2 μm steps of brain sections). Sholl analysis, performed via the ImageJ plugin, automatically generated concentric circles with 10-μm spacing from the nucleus (soma) to the farthest astrocytic process. This analysis quantified the intersections of GFAP-labeled processes within each circle, calculating the ramification index and ending radius, enabling the evaluation of astrocytic hypertrophy and morphological changes, as previously described.[78] In the focal GiD mouse model, NeuN-positive CA1 pyramidal neurons were quantified within a 50 × 50 μm^2 region via ImageJ to determine the number of CA1 pyramidal neurons."}},
  "data": [
    {"smiles": "CNc1ccc(NCCc2ccccc2OC)cc1.Cl", "note": "[KDS12025, N^1-(2-methoxyphenethyl)-N^4-methylbenzene-1,4-diamine hydrochloride salt]", "values": [
      {"measurement": "H2O2 level normalized to RBC+H2O2 only (Fig. S20t)", "setting": "[1]; 0.01 µM", "result": "37.08±7.98"},
      {"measurement": "H2O2 level normalized to RBC+H2O2 only (Fig. S20t)", "setting": "[1]; 0.1 µM", "result": "20.61±3.586"},
      {"measurement": "H2O2 level normalized to RBC+H2O2 only (Fig. S20t)", "setting": "[1]; 1 µM", "result": "7.116±4.5"},
      {"measurement": "Sholl analysis, sum of intersections (stats entry 7h)", "setting": "[2]", "result": "18 month (84.3±5.19, n=8), 30 month (44.4±5.44, n=9), 30 month+KDS (63.6±5.78, n=14) One-way ANOVA with Tukey's multiple comparisons test, F(2,28) = 9.65, p < 0.001 18 month vs. 30 month, p < 0.001; 18 month vs. 30 month+KDS, p = 0.05; 30 month vs. 30 month+KDS, p = 0.06"},
      {"measurement": "NeuN-positive neurons in CA1 (NeuN intensity × neuron number)", "setting": "[2]; Fig. 7f", "result": "18 month (1694642±125526, n=6), 30 month (1149296±45876, n=4), 30 month+KDS (1820376±163596, n=6) One-way ANOVA with Tukey's multiple comparisons test, F(2,13) = 5.78, p = 0.02 18 month vs. 30 month, p = 0.05; 18 month vs. 30 month+KDS, p = 0.77; 30 month vs. 30 month+KDS, p = 0.02"},
      {"measurement": "GFAP-positive area", "setting": "[2]; Fig. 7g", "result": "18 month (272.5±20.8, n=44), 30 month (167.6±12, n=60), 30 month+KDS (212.0±12.4, n=76) One-way ANOVA with Tukey's multiple comparisons test, F(2,177) = 11.24, p < 0.001 18 month vs. 30 month, p < 0.001; 18 month vs. 30 month+KDS, p = 0.01; 30 month vs. 30 month+KDS, p = 0.06"},
      {"measurement": "astrocytic Hbβ expression in the hippocampus", "setting": "[2]; Fig. 7l", "result": "18 month (56.4±1.04, n=48), 30 month (49.5±1.7, n=40), 30 month+KDS (62.8±1.32, n=32) One-way ANOVA with Tukey's multiple comparisons test, F(2,117) = 21.5, p < 0.001 18 month vs. 30 month, p < 0.001; 18 month vs. 30 month+KDS, p = 0.004; 30 month vs. 30 month+KDS, p < 0.001"},
      {"measurement": "MAOB intensity in GFAP-positive areas", "setting": "[2]; Fig. S19b", "result": "18 month (40.7±0.7, n=95), 30 month (71.5±1.04, n=66), 30 month+KDS (51.1±0.8, n=83) One-way ANOVA with Tukey's multiple comparisons test, F(2,241) = 354.7, p < 0.001 18 month vs. 30 month, p < 0.001; 18 month vs. 30 month+KDS, p < 0.001; 30 month vs. 30 month+KDS, p < 0.001"},
      {"measurement": "GABA intensity in GFAP-positive areas", "setting": "[2]; Fig. S19c", "result": "18 month (50.7±0.7, n=95), 30 month (67.03±1.7, n=66), 30 month+KDS (69.2±1.3, n=83) One-way ANOVA with Tukey's multiple comparisons test, F(2,198) = 84.9, p < 0.001 18 month vs. 30 month, p < 0.001; 18 month vs. 30 month+KDS, p < 0.001; 30 month vs. 30 month+KDS, p = 0.47"},
      {"measurement": "TH-positive neurons in the SNpc", "setting": "[2]; Fig. S19d", "result": "Unaired t-test, two tailed 30 month (23.75±5.12, n=4), 30 month+KDS (40.2±2.67, n=5), p = 0.02 t = 3.03, df = 7"}
    ]}
  ]
}
